The experiment addresses T1, KCNQ2/3 channels (Homo sapiens, UniProt O43525+O43526).
T1 construct: expressed in transfected cells; host or cells: CHO-K1
Description: Fluorescence assay using a voltage-sensitive dye (fluorimetry). It counts as cell-based. To be noted: CHO-K1 cells expressing KCNQ2/3; for pEC50: agonistic activity; for Emax: relative to retigabine = 100%, negative values = antagonistic, read-out: Fluorimetry % efficacy (I/EC50, retigabine = 100%). How it is done:
Pharmacological Experiments Fluorescence Assay Using a Voltage-Sensitive Dye
Human CHO-K1 cells expressing KCNQ2/3 channels are cultivated adherently at 37° C., 5% CO2 and 95% humidity in cell culture bottles (e.g. 80 cm^2 TC flasks, Nunc) with DMEM-high glucose (Sigma Aldrich, D7777) including 10% FCS (PAN Biotech, e.g. 3302-P270521) or alternatively MEM Alpha Medium (1×, liquid, Invitrogen, #22571), 10% foetal calf serum (FCS) (Invitrogen, #10270-106, heat-inactivated) and the necessary selection antibiotics.
Before being seeded out for the measurements, the cells are washed with a 1×DPBS buffer without Ca^2+/Mg^2+ (e.g. Invitrogen, #14190-094) and detached from the bottom of the culture vessel by means of Accutase (PAA Laboratories, #L11-007) (incubation with Accutase for 15 min at 37° C.). The cell count then present is determined using a CASY™ cell counter (TCC model, Schärfe System) in order subsequently to apply 20,000 to 30,000 cells/well/100 μl of the described nutrient medium, depending on density optimisation for the individual cell line, to 96-well measuring plates of the Corning™ CellBIND™ type (flat clear-bottom black polystyrene microplates, #3340). Incubation is then carried out for one hour at room temperature, without gassing or adjusting the humidity, followed by incubation for 24 hours at 37° C., 5% CO2 and 95% humidity.
The voltage-sensitive fluorescent dye from the Membrane Potential Assay Kit (Red™ bulk format part R8123 for FLIPR, MDS Analytical Technologies™) is prepared by dissolving the contents of a vessel of Membrane Potential Assay Kit Red Component A in 200 ml of extracellular buffer (ES buffer, 120 mM NaCl, 1 mM KCl, 10 mM HEPES, 2 mM CaCl2, 2 mM MgCl2, 10 mM glucose; pH 7.4). After removal of the nutrient medium, the cells are washed with 200 μl of ES buffer, then covered with a layer of 100 μl of the dye solution prepared above and incubated for 45 min at room temperature with exclusion of light.
The fluorescence measurements are carried out with a BMG Labtech FLUOstar™, BMG Labtech NOVOstar™ or BMG Labtech POLARstar™ instrument (525 nm excitation, 560 nm emission, bottom-read mode). After incubation of the dye, 50 μl of the substances to be tested in the desired concentrations, or 50 μl of ES buffer for control purposes, are introduced into separate cavities of the measuring plate and incubated for 30 min at room temperature whilst being shielded from light. The fluorescence intensity of the dye is then measured for 5 min and the fluorescence value F1 of each well is thus determined at a given, constant time. 15 μl of a […] KCl solution […] are then added to each well. The change in fluorescence is subsequently measured until all relevant measured values have been obtained (mainly […]). At a given time after KCl application, a fluorescence value F2 is determined, in this case at the time of the fluorescence peak.
For calculation, the fluorescence intensity F2 is compared with the fluorescence intensity F1, and the agonistic activity of the target compound on the potassium channel is determined therefrom. F2 and F1 are calculated as follows: […]
In order to determine whether a substance has an agonistic activity,
[formula] is determined by adding to the reaction batch only the buffer solution instead of the substance to be tested, determining the value F1K of the fluorescence intensity, adding the potassium ions as described above and measuring a value F2K of the fluorescence intensity. Then F2K and F1K are calculated as follows: […]
A substance has an agonistic activity on the potassium channel if
Independently of the comparison of
[formula] it is also possible to conclude that a target compound has an agonistic activity if an increase in
[formula] is to be observed as the dosage of the target compound increases.
Calculations of EC50 values are carried out with the aid of Prism v4.0 software (GraphPad Softwares™).

Molecules are shown by their SMILES. pEC50: −log10 of the molar value.

For `COc1ccc(CC(=O)Nc2cccnc2SCCS(=O)(=O)c2cccc(C(F)(F)F)c2)cc1` [Example 10, 2-(4-Methoxyphenyl)-N-[2-[2-[[3-(trifluoromethyl)phenyl]sulfonyl]-ethylsulfanyl]-pyridin-3-yl]acetamide], the negative-log EC50 (pEC50) is 7.26 and the Emax was determined as 74%.
In the same order, the values of `O=C(Nc1cccnc1SCCS(=O)(=O)c1cccc(C(F)(F)F)c1)C(F)(F)C1CCCCC1` [Example 68, 2-Cyclohexyl-2,2-difluoro-N-[2-[2-[[3-(trifluoromethyl)phenyl]sulfonyl]-ethylsulfanyl]-pyridin-3-yl]acetamide] are 7.66 and 79%.
In the same order, the values of `O=C(Nc1cccnc1SCCCc1ccc(F)cc1)c1ccc(F)c(F)c1` [Example 65, 3,4-Difluoro-N-[2-[3-(4-fluorophenyl)-propylsulfanyl]-pyridin-3-yl]benzamide] are 6.32 and 148%.
As to `O=C(Cc1ccncc1)Nc1cccnc1SCCS(=O)(=O)c1cccc(C(F)(F)F)c1` [Example 36, 2-Pyridin-4-yl-N-[2-[2-[[3-(trifluoromethyl)phenyl]sulfonyl]-ethylsulfanyl]-pyridin-3-yl]acetamide], the Emax was determined as 38%.
As for `O=C(CC1CCCCO1)Nc1cccnc1SCCS(=O)(=O)c1cccc(C(F)(F)F)c1` (centres unmarked) [Example 39, 2-Tetrahydropyran-2-yl-N-[2-[2-[[3-(trifluoromethyl)phenyl]sulfonyl]-ethylsulfanyl]-pyridin-3-yl]acetamide], the pEC50 is 6.44 and the Emax came to 139%.
In the same order, the values of `O=C(CC1CCCCC1)Nc1cccnc1SCCS(=O)(=O)c1ccccc1` [Example 1, N-[2-[2-(Benzenesulfonyl)-ethylsulfanyl]-pyridin-3-yl]-2-cyclohexyl acetamide] are 7.02 and 172%.
In the same order, the values of `O=C(CC1CCCCC1)Nc1cccnc1SCCSc1ccccc1` [Example 44, 2-Cyclohexyl-N-[2-(2-phenylsulfanyl-ethylsulfanyl)-pyridin-3-yl]acetamide] are 6.82 and 80%.
For `O=C(CC1CCc2ccccc2C1)Nc1cccnc1SCCS(=O)(=O)c1cccc(C(F)(F)F)c1` (centres unmarked) [Example 52, 2-(1,2,3,4-Tetrahydronaphthalen-2-yl)-N-[2-[2-[[3-(trifluoromethyl)phenyl]sulfonyl]-ethylsulfanyl]-pyridin-3-yl]acetamide], the negative-log EC50 (pEC50) was 6.68 and the Emax is 59%.
In the same order, the values of `O=C(CCC1CCCCCC1)Nc1cccnc1SCCS(=O)(=O)c1cccc(C(F)(F)F)c1` [Example 58, 3-Cycloheptyl-N-[2-[2-[[3-(trifluoromethyl)phenyl]sulfonyl]-ethylsulfanyl]-pyridin-3-yl]propionamide] are 7.32 and 167%.
In the same order, the values of `O=C(Nc1cccnc1SCCS(=O)(=O)c1ccccc1)c1ccc(F)c(F)c1` [Example 5, N-[2-[2-(Benzenesulfonyl)-ethylsulfanyl]-pyridin-3-yl]-3,4-difluorobenzamide] are 6.33 and 129%.
In the same order, the values of `O=C(Cc1ccccc1O)Nc1cccnc1SCCS(=O)(=O)c1cccc(C(F)(F)F)c1` [Example 12, 2-(2-Hydroxyphenyl)-N-[2-[2-[[3-(trifluoromethyl)phenyl]sulfonyl]-ethylsulfanyl]-pyridin-3-yl]acetamide] are 6.77 and 141%.
For `O=C(CCC1CCCCC1)Nc1cccnc1SCCS(=O)(=O)c1ccccc1` [Example 6, N-[2-[2-(Benzenesulfonyl)-ethylsulfanyl]-pyridin-3-yl]-3-cyclohexyl propionamide], the pEC50 is 7.12 and the Emax is 225%.
In the same order, the values of `O=C(Nc1cccnc1SCCS(=O)(=O)c1cccc(C(F)(F)F)c1)c1cccc(O)c1` [Example 47, 3-Hydroxy-N-[2-[2-[[3-(trifluoromethyl)phenyl]sulfonyl]-ethylsulfanyl]-pyridin-3-yl]benzamide] are 6.58 and 95%.
As for `O=C(Cc1cccs1)Nc1cccnc1SCCSc1ccccc1` [Example 21, N-[2-(2-Phenylsulfanyl-ethylsulfanyl)-pyridin-3-yl]-2-thiophen-2-yl acetamide], the pEC50 was 7.08 and the Emax was determined as 152%.
In the same order, the values of `O=C(CCC1CCCC1)Nc1cccnc1SCCS(=O)(=O)c1cccc(C(F)(F)F)c1` [Example 28, 3-Cyclopentyl-N-[2-[2-[[3-(trifluoromethyl)phenyl]sulfonyl]-ethylsulfanyl]-pyridin-3-yl]propionamide] are 6.56 and 152%.
For `O=C(CCC1CCCCC1)Nc1cccnc1SCCS(=O)(=O)c1cccc(C(F)(F)F)c1` [Example 41, 3-Cyclohexyl-N-[2-[2-[[3-(trifluoromethyl)phenyl]sulfonyl]-ethylsulfanyl]-pyridin-3-yl]propionamide], the negative-log EC50 (pEC50) is 7.00 and the Emax stood at 127%.
In the same order, the values of `COc1cccc(CC(=O)Nc2cccnc2SCCS(=O)(=O)c2cccc(C(F)(F)F)c2)c1` [Example 11, 2-(3-Methoxyphenyl)-N-[2-[2-[[3-(trifluoromethyl)phenyl]sulfonyl]-ethylsulfanyl]-pyridin-3-yl]acetamide] are 6.23 and 109%.
In the same order, the values of `O=C(CCc1ccccc1)Nc1cccnc1SCCS(=O)(=O)c1cccc(C(F)(F)F)c1` [Example 27, 3-Phenyl-N-[2-[2-[[3-(trifluoromethyl)phenyl]sulfonyl]-ethylsulfanyl]-pyridin-3-yl]propionamide] are 6.68 and 112%.
In the same order, the values of `O=C(CC1CCCCC1)Nc1cccnc1SCCSc1cccc(C(F)(F)F)c1` [Example 29, 2-Cyclohexyl-N-[2-[2-[[3-(trifluoromethyl)phenyl]sulfanyl]-ethylsulfanyl]-pyridin-3-yl]acetamide] are 6.51 and 108%.
`O=C(Cc1ccc(O)cc1)Nc1cccnc1SCCS(=O)(=O)c1cccc(C(F)(F)F)c1` [Example 13, 2-(4-Hydroxyphenyl)-N-[2-[2-[[3-(trifluoromethyl)phenyl]sulfonyl]-ethylsulfanyl]-pyridin-3-yl]acetamide]: the Emax was determined as 46%.
Regarding `O=C(Nc1cccnc1SCCS(=O)(=O)c1cccc(C(F)(F)F)c1)c1ccc(Cl)nc1` [Example 35, 6-Chloro-N-[2-[2-[[3-(trifluoromethyl)phenyl]sulfonyl]-ethylsulfanyl]-pyridin-3-yl]-pyridine-3-carboxylic acid amide], the Emax came out at 43%.
Still for that read-out and setting: under `O=C(CC1CCOCC1)Nc1cccnc1SCCS(=O)(=O)c1cccc(C(F)(F)F)c1` [Example 40, 2-Tetrahydropyran-4-yl-N-[2-[2-[[3-(trifluoromethyl)phenyl]sulfonyl]-ethylsulfanyl]-pyridin-3-yl]acetamide] stands 52%.
For the compound `O=C(Cc1cccs1)Nc1cccnc1SCCS(=O)(=O)c1ccccc1` [Example 7, N-[2-[2-(Benzenesulfonyl)-ethylsulfanyl]-pyridin-3-yl]-2-thiophen-2-yl acetamide], the negative logarithm of the EC50 (pEC50) is 6.37 and the Emax turned out to be 125%.
In the same order, the values of `CC(C)(C)CC(=O)Nc1cccnc1SCCCc1ccc(F)cc1` [Example 66, N-[2-[3-(4-Fluorophenyl)-propylsulfanyl]-pyridin-3-yl]-3,3-dimethyl butyramide] are 6.74 and 176%.

The values above are taken from patent publication US8247573B2, “Substituted N-(2-mercaptopyridin-3-yl)amides as KCNQ2/3 modulators” (Gruenenthal GmbH, priority 2009, dated 2012).
